“Also recorded” adds a separate entry of the source.
Assays:
Bcl-xL protein = Bcl-xL protein (Homo sapiens, UniProt Q07817)
BRD4-BD1 protein = BRD4-BD1 protein (Homo sapiens, UniProt O60885); settings: 1 M LiCl, pH 7.5

Bcl-xL protein, sequence (Q07817 with tags, fused parts or gaps DEL45-84): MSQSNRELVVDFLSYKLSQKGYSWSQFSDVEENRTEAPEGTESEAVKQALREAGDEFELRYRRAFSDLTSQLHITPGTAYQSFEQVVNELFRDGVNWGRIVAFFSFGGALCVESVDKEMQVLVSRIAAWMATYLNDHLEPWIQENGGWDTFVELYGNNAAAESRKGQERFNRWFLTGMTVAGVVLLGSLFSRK

SMILES	current noise (IN) signal of Bcl-xL on individual treatment (Bcl-xL protein; FIG. 17A)	change in pattern of ionic current / current blockade of Bcl-xL on addition of ligand (Bcl-xL protein; ligand added individually to Bcl-xL in cis compartment)	nanopore current blockade signal of BRD4-BD1 with ligand (BRD4-BD1 protein)
CN(C)CC[C@H](CSc1ccccc1)Nc1ccc(S(=O)(=O)NC(=O)c2ccc(N3CCN(Cc4ccccc4-c4ccc(Cl)cc4)CC3)cc2)cc1[N+](=O)[O-] [ABT-737]	specifically increased	change in pattern; also recorded: the pattern of ionic current changed significantly	
CCOc1cc(N2CCC(O)CC2)ccc1Nc1ncc2c(n1)N(C)c1ccccc1C(=O)N2C [XMD8-92]			characteristic nanopore current blockade patterns were observed

Source: patent US20260168983A1, “YaxAB NANOPORE, NANOPORE SYSTEM COMPRISING SAME AND APPLICATIONS THEREOF” (KOREA RESEARCH INSTITUTE OF BIOSCIENCE AND BIOTECHNOLOGY, priority 2022, published 2026)
